Assay results reported in PubChem BioAssay AID330 (DTP/NCI, 2004).
Several values for one entry are separate records, joined by “and”; a condition that tells them apart may be missing. Equal entries are not always repeated. Toxic doses and inconclusive results are not listed. How the source made its calls: active means survival T/C of 150% or more; inactive means T/C below 125% in these data.

Tested on: P388 leukemia ip, CD2F1 mice, survival T/C
Assay: NCI In Vivo Anticancer Drug Screen. Data for tumor model P388 Leukemia (intraperitoneal) in CD2F1 (CDF1) mice
Settings: endpoint: median survival time, higher = longer survival
Summary of the method: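 Mice carrying the transplanted tumor received test compound or vehicle. Survival was recorded in each group, and the value is the treated-group measurement divided by that of the vehicle-treated control group.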

[1] = dose: 50.0 mg/kg/injection, schedule: Q01DX009 (ip), vehicle: saline with Tween-80
[2] = dose: 100.0 mg/kg/injection, schedule: Q01DX009 (ip), vehicle: saline with Tween-80
[3] = dose: 200.0 mg/kg/injection, schedule: Q01DX009 (ip), vehicle: saline with Tween-80
[4] = dose: 25.0 mg/kg/injection, schedule: Q04DX002 (ip), vehicle: saline
[5] = dose: 60.0 mg/kg/injection, schedule: Q01DX005 (ip), vehicle: saline with Tween-80
[6] = dose: 120.0 mg/kg/injection, schedule: Q01DX005 (ip), vehicle: saline with Tween-80
[7] = dose: 240.0 mg/kg/injection, schedule: Q01DX005 (ip), vehicle: saline with Tween-80
[8] = dose: 60.0 mg/kg/injection, schedule: Q01DX005 (ip), vehicle: Klucel (hydroxypropylcellulose) (HPC)
[9] = dose: 120.0 mg/kg/injection, schedule: Q01DX005 (ip), vehicle: Klucel (hydroxypropylcellulose) (HPC)
[10] = dose: 50.0 mg/kg/injection, schedule: Q01DX009 (ip), vehicle: saline

Measured: T/C

Cc1ccc(/C=C/C(=N/NC(=O)c2ccccc2)C(C)CN(C)C)cc1 (stereo unspecified)
inactive: dose: 60.0 mg/kg/injection, schedule: Q01DX005 (ip), vehicle: saline 99 % of control | dose: 120.0 mg/kg/injection, schedule: Q01DX005 (ip), vehicle: saline 111 % of control

O=C(/C(=C\c1ccccc1)c1ccccc1)c1ccccc1
inactive: [1] 92 % of control | [2] 88 % of control | [3] 93 % of control | dose: 400.0 mg/kg/injection, schedule: Q01DX009 (ip), vehicle: saline with Tween-80 95 % of control

O=C(O)C(=O)O.[Co].[NH-]CCC[NH-].[NH-]CCC[NH-]
inactive: [4] 98 % of control

Cc1ccc([P+](CCN2C(=O)c3ccccc3C2=O)(c2ccc(C)cc2)c2ccc(C)cc2)cc1
inactive: dose: 0.39 mg/kg/injection, schedule: Q01DX009 (ip), vehicle: water 111 % of control | dose: 0.78 mg/kg/injection, schedule: Q01DX009 (ip), vehicle: water 121 % of control | dose: 1.56 mg/kg/injection, schedule: Q01DX009 (ip), vehicle: water 115 % of control | dose: 3.13 mg/kg/injection, schedule: Q01DX009 (ip), vehicle: water 121 % of control

O=C=C=O
inactive: dose: 1:2.0 dilution, schedule: Q01DX001 (ip), vehicle: none 102 % of control | dose: 1:4.0 dilution, schedule: Q01DX001 (ip), vehicle: none 104 % of control | dose: 1:8.0 dilution, schedule: Q01DX001 (ip), vehicle: none 99 % of control

OC12CCCCC1CCCS2 (stereo unspecified)
inactive: dose: 100.0 mg/kg/injection, schedule: Q04DX003 (ip), vehicle: saline 98 % of control | dose: 200.0 mg/kg/injection, schedule: Q04DX003 (ip), vehicle: saline 94 % of control | dose: 400.0 mg/kg/injection, schedule: Q04DX003 (ip), vehicle: saline 102 % of control

OC1CC2c3ccccc3C1c1cccc[n+]12 (stereo unspecified)
inactive: dose: 12.5 mg/kg/injection, schedule: Q01DX005 (ip), vehicle: saline 106 % of control | dose: 25.0 mg/kg/injection, schedule: Q01DX005 (ip), vehicle: saline 108 % of control | dose: 50.0 mg/kg/injection, schedule: Q01DX005 (ip), vehicle: saline 103 % of control and 106 % of control

CNc1nc(-c2ccccc2)c(-c2ccccc2)[nH]1
inactive: dose: 6.25 mg/kg/injection, schedule: Q04DX002 (ip), vehicle: saline 105 % of control | dose: 12.5 mg/kg/injection, schedule: Q04DX002 (ip), vehicle: saline 100 % of control | [4] 97 % of control

C=C(CCCC)C(=O)OC
inactive: [1] 102 % of control | [2] 111 % of control | [3] 108 % of control

NC1=C(O)C(=O)C2(O1)C(=O)Nc1ccccc12 (stereo unspecified)
inactive: dose: 50.0 mg/kg/injection, schedule: Q01DX005 (ip), vehicle: Klucel (hydroxypropylcellulose) (HPC) 100 % of control | dose: 100.0 mg/kg/injection, schedule: Q01DX005 (ip), vehicle: Klucel (hydroxypropylcellulose) (HPC) 100 % of control | dose: 200.0 mg/kg/injection, schedule: Q01DX005 (ip), vehicle: Klucel (hydroxypropylcellulose) (HPC) 106 % of control

O=C(CCC(=O)C1CCCC1=O)Nc1cccc([N+](=O)[O-])c1 (stereo unspecified)
inactive: [5] 102 % of control | [6] 102 % of control | [7] 101 % of control

C/C(=C/OS(=O)(=O)C(F)(F)F)c1ccccc1
inactive: dose: 50.0 mg/kg/injection, schedule: Q01DX009 (ip), vehicle: olive oil, sesame oil, peanut oil 105 % of control | dose: 100.0 mg/kg/injection, schedule: Q01DX009 (ip), vehicle: olive oil, sesame oil, peanut oil 116 % of control | dose: 200.0 mg/kg/injection, schedule: Q01DX009 (ip), vehicle: olive oil, sesame oil, peanut oil 87 % of control

CCCN(CCC)C(=O)Cn1cc([N+](=O)[O-])s/c1=N/C(=O)NCC
inactive: dose: 25.0 mg/kg/injection, schedule: Q01DX001 (ip), vehicle: saline with Tween-80 97 % of control | dose: 50.0 mg/kg/injection, schedule: Q01DX001 (ip), vehicle: saline with Tween-80 99 % of control | dose: 100.0 mg/kg/injection, schedule: Q01DX001 (ip), vehicle: saline with Tween-80 106 % of control

S=C1NCCOc2ccccc21
inactive: [8] 100 % of control | [9] 100 % of control

COc1ccc2c(=O)c(S)coc2c1
inactive: [5] 100 % of control | [6] 101 % of control | [7] 100 % of control

CC(C)(C)N(O)c1ccc(P(=O)(c2ccccc2)c2ccccc2)cc1
inactive: [1] 99 % of control | [2] 99 % of control | [3] 99 % of control

Cc1cc2nc(CC(O)(C(F)(F)F)C(F)(F)F)oc2cc1C
inactive: dose: 100.0 mg/kg/injection, schedule: Q04DX003 (ip), vehicle: saline with Tween-80 95 % of control | dose: 200.0 mg/kg/injection, schedule: Q04DX003 (ip), vehicle: saline with Tween-80 95 % of control | dose: 400.0 mg/kg/injection, schedule: Q04DX003 (ip), vehicle: saline with Tween-80 100 % of control

CCN(CC)C(=NC(C)(C)C)c1ccccc1
inactive: dose: 3.12 mg/kg/injection, schedule: Q01DX009 (ip), vehicle: saline 101 % of control and 93 % of control and 97 % of control | dose: 6.25 mg/kg/injection, schedule: Q01DX005 (ip), vehicle: Klucel (hydroxypropylcellulose) (HPC) 107 % of control | dose: 6.25 mg/kg/injection, schedule: Q01DX009 (ip), vehicle: saline 96 % of control and 97 % of control | dose: 12.5 mg/kg/injection, schedule: Q01DX005 (ip), vehicle: Klucel (hydroxypropylcellulose) (HPC) 100 % of control | dose: 25.0 mg/kg/injection, schedule: Q01DX005 (ip), vehicle: Klucel (hydroxypropylcellulose) (HPC) 107 % of control | [10] 99 % of control

N/C(=C\c1nc2ccccc2nc1-c1ccccc1)c1ccccc1Cl
inactive: [8] 100 % of control | [9] 91 % of control

CCCCCCCCCCCCCCCc1cccc(OC)c1C(=O)OC
inactive: dose: 20.0 mg/kg/injection, schedule: Q01DX009 (ip), vehicle: saline 109 % of control | dose: 40.0 mg/kg/injection, schedule: Q01DX009 (ip), vehicle: saline 106 % of control | dose: 80.0 mg/kg/injection, schedule: Q01DX009 (ip), vehicle: saline 104 % of control

O=C1CCC(c2nc(=S)[nH][nH]2)N1Cc1ccccc1 (stereo unspecified)
inactive: [5] 101 % of control | [6] 102 % of control | [7] 101 % of control

CC(C)NC(=O)CN1C(=O)NC(C)(c2ccccc2)C1=O (stereo unspecified)
inactive: [5] 101 % of control | [6] 95 % of control | [7] 94 % of control

OC1CCc2ncccc2O1 (stereo unspecified)
inactive: [10] 102 % of control | dose: 100.0 mg/kg/injection, schedule: Q01DX009 (ip), vehicle: saline 102 % of control | dose: 200.0 mg/kg/injection, schedule: Q01DX009 (ip), vehicle: saline 102 % of control

CCCCN(CCCC)C(C)C(=O)c1ccc2cc(Br)c3ccccc3c2c1 (stereo unspecified)
inactive: dose: 12.5 mg/kg/injection, schedule: Q01DX005 (ip), vehicle: saline with Tween-80 110 % of control | dose: 25.0 mg/kg/injection, schedule: Q01DX005 (ip), vehicle: saline with Tween-80 101 % of control | dose: 50.0 mg/kg/injection, schedule: Q01DX005 (ip), vehicle: saline with Tween-80 99 % of control and 100 % of control | dose: 100.0 mg/kg/injection, schedule: Q01DX005 (ip), vehicle: saline with Tween-80 107 % of control | dose: 200.0 mg/kg/injection, schedule: Q01DX005 (ip), vehicle: saline with Tween-80 119 % of control

COC(=O)C1CC2c3ccccc3C1c1ccccc12 (stereo unspecified)
inactive: [5] 99 % of control | [6] 99 % of control | [7] 101 % of control

Cc1cc(C(=O)O)c(C)c2c1sc1ccccc12
inactive: [5] 101 % of control | [6] 114 % of control

C=CN=NNc1ccc(OC)cc1
inactive: dose: 100.0 mg/kg/injection, schedule: Q04DX003 (ip), vehicle: saline + Tween-80 + alcohol 116 % of control | dose: 200.0 mg/kg/injection, schedule: Q04DX003 (ip), vehicle: saline + Tween-80 + alcohol 106 % of control
